Test results reported in US5017723A, “Substituted ethylamines, their preparation process, their use as medicine and their synthesising agents” (Jouveinal S.A., priority 1990, dated 1991).
pIC50: −log10 of the molar value. Read-outs that look alike come from different tables or passages of the source.

What was measured:
opiated delta receptor = biological target: T1, opiated delta receptor (Cavia porcellus, UniProt A0A286XTF2); experiment: Displacement of specific radioactive ligands, opiated delta receptor; type: binding, guinea pig; settings: inhibition of 50% of radioligand bonds; read-out: CI50 affinity delta rec.
T1 construct: membranous receptors of a guinea pig; from tissue
Method: (§1) The analysis is carried out in accordance with the technique described by F. Roman et al. in J. Pharm. Pharmcol. 1987, 39, p. 404-407 which consists of analysing the displacement of specific radioactive ligands of the opiated mu, delta and kappa sub receptors by the action of the test products on the membranous receptors of a guinea pig.

opiated kappa receptor = biological target: T2, opiated kappa receptor (Cavia porcellus, UniProt P41144); experiment: Displacement of specific radioactive ligands, opiated kappa receptor; type: binding, guinea pig; settings: inhibition of 50% of radioligand bonds; read-out: CI50 affinity kappa rec.
T2 construct: membranous receptors of a guinea pig; from tissue
Method: as §1

bladder of the rat = experiment: Transvesical cystomanometry on wide awake rat (urological activity); type: in vivo, female rat; settings: for change in vivo at 1 mg/kg: Rattus norvegicus, iv, 1,0 mg/kg i.v.; for activity on the urinary tract compared to the reference compounds (in words): compared to Dicyclomine and Baclofen
Method: Studies by a similar method of operation, the compounds of the invention (I.A) which show a mu and kappa affinity also have an activity on certain functional parameters of the bladder of the rat which justifies their interest in the treatment of dysfunctions in the urinary tract.
The study carried out consists of transvesical cystomanometry on a wide awake rat. The following was measured during the storage and emission phases of urine under continuous intervesical perfusion of sterile physiological serum:
the "threshold pressure", which is the intervesical pressure immediately preceding the contraction phase of the detrusor
the volume of each urinary emission.
The technique used in the female rat consisted of preparing the animals 48 hours before the actual experiment by effecting the implantation of two catheters in the apex of the bladder and one catheter in the left-hand jugular vein under anaesthetic, with the external end of these catheters being protected and held by a sticking plaster corset.
The animals were placed in suitable cages at the time of the test, which were equipped so as to collect and measure the urine. For each animal one vesical catheter was connected to a pressure sensor, the other to a perfusor which supplied 0.2 ml/min. of sterile physiological serum continuously.
The intravesical pressure was measured continuously during the perfusion and it was possible to observe:
a filling phase of the bladder during which the pressure increased progressively,
a sudden rising phase of this pressure during the contraction of the detrusor: the "threshold" pressure which is the pressure observed just before the pressure of the contraction phase. This threshold pressure was raised in the same way as the urinary volume at each urination.
The study consisted of observing the changes in these parameters by the action of the products (IA) which were administered in solution by intravenous route by means of the catheter placed in the left jugular vein.
Dicyclomine and Baclofen which have been considered for the treatment of hyperactive bladders (Drugs of Today, Vol. 24, no. 5, 1988, p. 337-348) were also used in this test in the form of comparison products.

opiated mu receptor [1] = type: binding, guinea pig; settings: opiated receptors, compared with morphine
Method: as §1

opiated mu receptor [2] = biological target: opiated mu receptor (Cavia porcellus, UniProt A0ACM8Q262); type: binding, guinea pig; settings: inhibition of 50% of radioligand bonds; read-out: CI50 affinity mu rec.
Method: as §1

[3] = system: convulsion induced by picrotoxine in mice; experiment: Protection against picrotoxine-induced convulsion (suppression of the tonic extension phase); type: in vivo, male Swiss mice; settings: Mus musculus
Description: The psychotropic properties of the compounds have been determined by the protection of the induced convulsion by picrotoxine for mice, which is achieved by the method derived from that of Krall et al., "Epilepsia", 1978, 19, p. 409-428.
The administration of picrotoxine caused a convulsive crisis in the animal characterised by a myoclonic extension syndrome followed by the extension of the limbs causing the animal to die. Certain substances, particularly those active on the complex GABA/benzodiazepines/Cl-ionophore makes it possible to protect the animals from this convulsive crisis.
In practice the study is carried out on batches of 10 male "Swiss" mice weighing approximately 20 g, which are administered with the product to be studied in aqueous solution either by intraperitoneal route (i.p.) at the rate of 50 mg/kg and in a volume of 0.2 ml of solution per animal, or by oral route (p.o) in a volume of 2.0 ml of solution per animal.
An injection of a solution of picrotoxine at the rate of 24 mg/kg in a volume of 0.2 ml per animal is then administered by interperitoneal route, either 30 minutes after administering the product by interperitoneal route or 60 minutes after administering the product by oral route. The dose of the product injected causing a clonic crisis, which results in untreated animals dying. The suppression of the extension tonic phase in the animals treated under the conditions of the test is observed. The results are expressed:
either in percentages of protected animals of this phase to the reaction of 50 mg/kg of the compound of the study administered by i.p. route or 100 mg/kg by p.o route,
or in DE50 for each of these routes, which is the efficient dosage of the test compound expressed in mg/kg protecting 50% of the animals of this extension phase. The significant value of the results being generally indicated in the following manner:
* Significant result at p<0.05
** Significant result at p<0.01
*** Significant highly significant at p<0.001.

[4] = read-out: % variation pressure threshold

opiated mu receptor (Cavia porcellus, UniProt A0ACM8Q262), sequence (A0ACM8Q262 1-400): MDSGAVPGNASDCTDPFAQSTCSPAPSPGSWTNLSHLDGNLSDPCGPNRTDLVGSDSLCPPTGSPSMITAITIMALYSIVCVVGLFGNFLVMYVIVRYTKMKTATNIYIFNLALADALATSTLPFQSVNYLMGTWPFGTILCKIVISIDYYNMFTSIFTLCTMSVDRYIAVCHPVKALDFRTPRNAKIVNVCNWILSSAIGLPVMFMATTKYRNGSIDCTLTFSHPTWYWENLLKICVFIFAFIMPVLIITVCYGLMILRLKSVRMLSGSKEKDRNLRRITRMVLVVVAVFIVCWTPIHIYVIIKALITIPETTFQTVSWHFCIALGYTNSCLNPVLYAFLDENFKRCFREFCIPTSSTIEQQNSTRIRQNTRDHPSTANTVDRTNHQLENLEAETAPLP
T1 sequence (A0A286XTF2 1-366): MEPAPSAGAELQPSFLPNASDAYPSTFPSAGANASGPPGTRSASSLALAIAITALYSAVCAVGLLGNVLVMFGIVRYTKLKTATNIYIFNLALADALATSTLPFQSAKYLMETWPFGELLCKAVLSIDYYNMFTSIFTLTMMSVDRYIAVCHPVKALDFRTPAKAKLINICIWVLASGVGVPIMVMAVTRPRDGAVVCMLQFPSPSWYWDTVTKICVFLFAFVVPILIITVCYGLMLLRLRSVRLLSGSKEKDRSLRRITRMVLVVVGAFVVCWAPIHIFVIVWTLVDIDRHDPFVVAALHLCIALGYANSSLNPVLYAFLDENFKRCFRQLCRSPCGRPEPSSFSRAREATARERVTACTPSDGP
T2 sequence (P41144 whole entry): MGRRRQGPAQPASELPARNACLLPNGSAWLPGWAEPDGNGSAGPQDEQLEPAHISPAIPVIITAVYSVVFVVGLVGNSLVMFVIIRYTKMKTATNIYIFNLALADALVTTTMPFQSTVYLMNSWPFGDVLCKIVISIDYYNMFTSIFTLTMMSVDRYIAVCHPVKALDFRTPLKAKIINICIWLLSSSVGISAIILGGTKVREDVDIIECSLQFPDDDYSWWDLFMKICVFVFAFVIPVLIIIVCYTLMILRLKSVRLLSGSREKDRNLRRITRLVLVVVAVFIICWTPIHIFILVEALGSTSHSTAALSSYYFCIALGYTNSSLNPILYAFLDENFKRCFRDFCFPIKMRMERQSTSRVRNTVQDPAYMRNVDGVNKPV

Row | Structure (SMILES) | pIC50 (opiated delta receptor) | pIC50 (opiated kappa receptor) | change in vivo at 1 mg/kg (bladder of the rat; [4]) [%] | change in vivo at 1 mg/kg (bladder of the rat; read-out: % variation volume) [%] | activity on the urinary tract compared to the reference compounds (in words) (bladder of the rat) | affinity with the receptors compared with morphine (in words) (opiated mu receptor [1]) | pIC50 (opiated mu receptor [2]) | ED50 ([3]; ip, read-out: i.p.: DE50) [mg/kg] | ED50 ([3]; po, read-out: p.o.: DE50) [mg/kg] | responders at 100 mg/kg ([3]; po, 1 h, read-out: p.o.: % prot. (percentage of protected animals), 100 mg/kg p.o., picrotoxine 24 mg/kg i.p. 60 min later, * p<0.05, ** p<0.01, *** p<0.001) [%]
1 | CCC(CC=Cc1ccc(Cl)c(Cl)c1)(c1ccc(Cl)cc1)N(C)C (stereo not drawn) [Example 43, a-(3',4' dichloro) cinnamyl-N,N-dimethyl-a-ethyl-p.chlorobenzylamine] | 6.36 | 6.71 | 109 | 91 | important activity | same order of intensity as the reference products | 7.80 | – | – | –
2 | CCC(CC=Cc1ccc(Cl)c(Cl)c1)(c1ccc(C)cc1)N(C)C (stereo not drawn) [Example 44, a-(3',4'-dichloro) cinnamyl-N,N-dimethyl-a-ethyl-p.methylbenzylamine] | 6.65 | 6.96 | – | – | important activity | same order of intensity as the reference products | 8.40 | 21.4 | 23.9 | –
3 | CCC(CC=Cc1ccc(Cl)c(Cl)c1)(c1ccc(OC)cc1)N(C)C (stereo not drawn) [Example 46, a-(3',4'-dichloro)cinnamyl-N,N-dimethyl-a-ethyl-p.metoxybenzylamine] | 6.59 | 6.63 | 111 | 44 | important activity | same order of intensity as the reference products | 7.92 | 29.8 | 35.4 | –
4 | CCC(CC=Cc1ccc(Cl)c(Cl)c1)(c1ccccc1)N(C)C (stereo not drawn) [Example 36, a-(3',4'-dichloro)cinnamyl-N,N-dimethyl-a-ethyl-benzylamine] | 6.17 | 6.66 | 125 | 36 | important activity | – | 7.05 | – | – | 100
